Assay results: article PMC5351967, “Blue-light induced accumulation of reactive oxygen species is a consequence of the Drosophila cryptochrome photocycle” (PLoS ONE, 2017)

Target: T1, DmCry (Drosophila melanogaster, UniProt O77059)
T1 construct: gene cry
Assay: UV-visible absorption spectroscopy of protein-bound flavin, photoreduction and dark reoxidation
Format: binding
Conditions: co-purified cofactor; 50 mM phosphate pH 7.5, 10 mM beta-mercaptoethanol, 21 °C; blue light

T1 sequence (O77059 whole entry): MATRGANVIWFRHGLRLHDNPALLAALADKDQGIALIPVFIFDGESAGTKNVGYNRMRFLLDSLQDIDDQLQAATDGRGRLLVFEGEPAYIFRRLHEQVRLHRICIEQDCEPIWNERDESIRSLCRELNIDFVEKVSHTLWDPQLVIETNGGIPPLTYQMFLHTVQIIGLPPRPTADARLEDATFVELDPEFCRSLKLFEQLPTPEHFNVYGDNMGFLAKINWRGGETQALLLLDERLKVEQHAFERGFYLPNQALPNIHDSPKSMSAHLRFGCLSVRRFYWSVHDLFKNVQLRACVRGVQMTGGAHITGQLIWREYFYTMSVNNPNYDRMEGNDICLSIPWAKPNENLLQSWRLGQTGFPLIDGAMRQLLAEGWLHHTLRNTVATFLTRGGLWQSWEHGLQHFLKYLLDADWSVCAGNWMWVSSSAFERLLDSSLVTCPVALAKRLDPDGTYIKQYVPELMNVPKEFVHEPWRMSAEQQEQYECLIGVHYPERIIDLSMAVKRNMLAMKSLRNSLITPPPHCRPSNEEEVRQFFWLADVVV

## Cc1cc2nc3c(=O)[nH]c(=O)nc-3n(C[C@H](O)[C@H](O)[C@H](O)COP(=O)(O)OP(=O)(O)OC[C@H]3O[C@@H](n4cnc5c(N)ncnc54)[C@H](O)[C@@H]3O)c2cc1C [FAD]
  UV-visible absorption spectroscopy of protein-bound flavin, photoreduction and d: Flavin reduction to the anionic radical (FAD^•-) redox form could then be observed
